Data reported in patent US6743796B2, “Piperazinyl-isatins” (Wyeth, priority 2001, dated 2004).
Counter-ions that a name gives are not always drawn.

Legend:
[1] = target: T1, dopamine autoreceptor (D2 Quin.) (Rattus norvegicus, UniProt P61169); test: Affinity for the dopamine autoreceptor: [3H]-quinpirole binding in homogenized rat striatal brain tissue; conditions: rat striatal brain tissue (high-affinity agonist state)
T1 construct: from tissue; host or cells: rat striatal brain tissue homogenate
Description: Affinity for the dopamine autoreceptor was established by a modification of the standard pharmacological test procedure of Seemen and Schaus, European Journal of Pharmacology 203: 105-109, 1991, wherein homogenized rat striatal brain tissue is incubated with [^3H]-quinpirole (Quin.) at various concentrations of test compound, filtered, washed and counted in a Betaplate scintillation counter.

dopamine D2 receptor = test: Affinity for the dopamine D2 receptor: [3H]-spiperidone binding in homogenized limbic brain tissue; conditions: ratio of IC50 D2 Spiper to IC50 D2 Quin. (LowAg/HighAg)
Description: High affinity for the dopamine D2 receptor was established by the standard pharmacological test procedure of Fields, et al., Brain Res., 136, […] (1977) and Yamamura et al., ed., Neurotransmitter Receptor Binding, Raven Press, N.Y. (1978) wherein homogenized limbic brain tissue is incubated with [^3H]-spiperidone at various concentrations of test compound, filtered washed, and shaken with Hydrofluor scintillation cocktail (National Diagnostics) and counted in a Packard 460 CD scintillation counter.

T1 sequence (P61169 whole entry): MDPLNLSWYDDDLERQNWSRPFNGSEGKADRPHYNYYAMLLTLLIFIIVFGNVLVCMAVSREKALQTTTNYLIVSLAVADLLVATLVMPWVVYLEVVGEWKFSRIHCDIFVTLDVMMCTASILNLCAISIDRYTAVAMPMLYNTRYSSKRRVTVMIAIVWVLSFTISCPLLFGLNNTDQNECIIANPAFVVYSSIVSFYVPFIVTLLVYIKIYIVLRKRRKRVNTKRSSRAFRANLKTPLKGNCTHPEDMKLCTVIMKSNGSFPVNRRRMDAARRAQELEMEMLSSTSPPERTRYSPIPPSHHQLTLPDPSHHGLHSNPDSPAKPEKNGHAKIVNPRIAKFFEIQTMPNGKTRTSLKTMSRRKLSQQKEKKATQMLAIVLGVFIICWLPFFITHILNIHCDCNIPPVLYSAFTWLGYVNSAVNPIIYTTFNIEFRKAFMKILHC

Structure (SMILES) | melting point [°C] | IC50 [1] [nM] | Ratio antagonist (dopamine D2 receptor)
O=C1Nc2cccc(N3CCN(Cc4ccccc4)CC3)c2C1=O (as salt: fumarate) (hydrate or solvate) [Example V, 4-(4-Benzyl-piperazin-1-yl)-1H-indole-2,3-dione] | 118 to 120 | – | –
O=C1Nc2cccc(N3CCN(Cc4ccccc4)CC3)c2C1=O [Example V, 4-(4-Benzyl-piperazin-1-yl)-1H-indole-2,3-dione] | – | 0.57 ± 0.2 | 149
